Data on 3 compounds can be found in patent US20160324201A1, “SWEETENER COMPOSITION FOR ALLEVIATING DIABETES, CONTAINING SLOWLY DIGESTIBLE INGREDIENT” (CJ CHEILJEDANG CORPORATION, priority 2011, published 2016).

Assay [1] is described as follows: Area under the curve of blood glucose (G-AUC) after meal and coffee containing the sweetener composition. The assay is classed as in vivo, human. The procedure: (§1) The sweetener composition intake was conducted by providing subjects with an identical meal and then allowing them to drink coffee containing the sweetener composition.
(§2) In order to measure changes in blood glucose after the meal, blood glucose level before meal was checked, followed by providing the subjects with the meal and then coffee was given. Blood glucose was measured for 2 hours at intervals of 30 minutes.

Assay [2] can be described thus: Changes in blood glucose after an identical meal and coffee containing the sweetener composition. It is filed as in vivo, human. As to conditions: for Post-meal increase in blood glucose: result in words. On the procedure:
(1) Preparation of Test Specimen for Measuring Blood Glucose and Method of Intake
as §1
(2) Measurement of Changes in Blood Glucose Levels
as §2

Setting [3] is: 0 min (before meal), normal subjects, five males and five females.
Setting [4] is: 30 min after meal and coffee, * = p < 0.01 or less vs Comparative Example 1 (sugar).
The mark [5] stands for this setting: 60 min after meal and coffee, * = p < 0.01 or less vs Comparative Example 1 (sugar).
[6] abbreviates: 90 min after meal and coffee, * = p < 0.01 or less vs Comparative Example 1 (sugar).

With `OC[C@@H](O)[C@@H](O)CO` [Comparative Example 2, Erythritol], the G-AUC in assay [1] (to 30 min) is 3449 mg·min/dL; in assay [1] (to 60 min), 7329 mg·min/dL; in assay [1] (to 90 min) it was 10619 mg·min/dL; in assay [1] (to 120 min) it was 13542 mg·min/dL. Further, the Blood glucose in assay [2] (setting [3]) turned out to be 92.8 mg/dL; in assay [2] (setting [4]) it was 137.1 mg/dL; in assay [2] (setting [5]), 121.6 mg/dL; in assay [2] (setting [6]) it was 97.7 mg/dL; in assay [2] (120 min after meal and coffee), 97.2 mg/dL. Besides, the “Post-meal increase in blood glucose” value in assay [2] is “increase in blood glucose due to the meal only”.
As to `OC[C@H]1O[C@@](CO)(O[C@H]2O[C@H](CO)[C@@H](O)[C@H](O)[C@H]2O)[C@@H](O)[C@@H]1O` [Comparative Example 1, Sugar], the G-AUC in assay [1] (to 30 min) was 3483 mg·min/dL; in assay [1] (to 60 min), 7425 mg·min/dL; in assay [1] (to 90 min), 10758 mg·min/dL; in assay [1] (to 120 min) it was 13686 mg·min/dL. In addition, the Blood glucose was found to be 93.1 mg/dL in assay [2] (setting [3]); 139.1 mg/dL in assay [2] (setting [4]); 123.7 mg/dL in assay [2] (setting [5]); 98.5 mg/dL in assay [2] (setting [6]); 96.7 mg/dL in assay [2] (120 min after meal and coffee). For the same compound, the “Post-meal increase in blood glucose” value in assay [2] is recorded as “highest increase in blood glucose”.
With `O=C(CO)[C@H](O)[C@H](O)[C@H](O)CO` [Comparative Example 3, D-psicose], the G-AUC in assay [1] (to 30 min) was 3236 mg·min/dL; in assay [1] (to 60 min) it was 6803 mg·min/dL; in assay [1] (to 90 min), 9917 mg·min/dL; in assay [1] (to 120 min), 12725 mg·min/dL. In addition, the Blood glucose in assay [2] (setting [3]) was found to be 92.4 mg/dL; in assay [2] (setting [4]), 123.3 mg/dL; in assay [2] (setting [5]), 114.5 mg/dL; in assay [2] (setting [6]), 93.1 mg/dL; in assay [2] (120 min after meal and coffee), 94.1 mg/dL. In addition, the “Post-meal increase in blood glucose” value in assay [2] is given as “lowering increase in blood glucose after the meal”.
